Columns and labels:
Assay type in all cases: in vivo, mouse
[1] = system: phosphorylated tau (pTau); assay: Phosphorylated tau level in brain, capillary-phoresis; details: treated 3xTg mice; controls = 100%
Text: (§1) Capillary-phoresis immunoassay via ProteinSimple®: Quantification of all protein targets was achieved using Simple Western analysis in a Jess™ apparatus per the manufacturer's protocol (ProteinSimple, Bio-techne, Minneapolis, MN). Protein was extracted from dissected tissue in an extraction buffer consisting of T-PER® Tissue Protein Extraction Reagent (Cat. No. 78510, Thermo Fischer Scientific, Waltham, MA) and Halt™ Protease Inhibitor Cocktail (Cat. No. 87785, Thermo Fischer Scientific, Waltham, MA). Following homogenization and centrifugation (10,000×g, 5 min, 4° C.), protein concentration was determined in tissue protein supernatant samples using DC Protein Assay (Cat. No. 5000112, Bio-Rad Laboratories, Hercules, California) according to manufacturer instructions. […] Antibody diluent (ProteinSimple, Bio-techne, Minneapolis, MN) was used for all antibody dilutions as follows: PRMT4 (1:50, RRID: AB_2068436), PRMT6 (1:100, Cell Signaling Technology cat. 14641), eNOS (1:200, RRID: AB_10850618), nNOS (1:100, RRID: AB_2152488), iNOS (1:100, RRID: AB_10000625), DDAH2 (1:50, RRID: AB_2640442) Antibodies were detected using HRP-conjugated secondary anti-rabbit, and -mouse. Relative protein levels were calculated by measuring the area under the peak of a chemiluminescent chromatogram and normalized to total capillary chemiluminescence for a given sample. […]

[2] = system: nNOS; assay: nNOS protein level in brain, capillary-phoresis; details: treated 3xTg-AD mice; control = 100%
Text: as §1

[3] = system: C57 mice; assay: Neurovascular coupling: microvessel diameter, two-photon laser scanning microscopy, C57 mice; details: decreased PRMT4 via TP-064/PRMT4-AAV
[4] = system: aged 3xTg-AD female mice; assay: BBB leakage: 40 kDa FITC-dextran in perivascular space; details: 30 min after FITC-dextran
Text: FIGS. 14A-14C show BBB leakage is reduced with specific PRMT4 inhibitor (TP-064) or AAV knockdown of PRMT4 in aged 3xTg-AD female mice. Aged female 3xTg-AD mice had higher levels of 40 kDa FITC-dextran in the perivascular space v. C57 controls. This was reduced with administration of PRMT inhibitor (TP-064) or AAV knockdown of PRMT4. […] FIG. 14B is a schematic representation of one of the disclosed experimental paradigms. […] C57, #p<0.05 v. 3xTg-AD female, evaluated by one-way ANOVA with Tukey's post-hoc analysis.

`CNCCN1CCC(c2cc(CN(C)C(=O)c3cccc(Oc4ccccc4)c3)ccn2)CC1` [TP-064, N-Methyl-N-((2-(1-(2-(methylamino)ethyl)piperidin-4-yl)pyridin-4-yl)methyl)-3-phenoxybenzamide] was tested. Which “pTau level in cortex” value [1] did it give?
The value was 234%±8.33.

What about the “pTau level in hippocampus” value [1] of the same compound?
The value was 307%±31.4.

What about the “nNOS level in cortical lysates” value [2] of the same compound?
Its value is 40.3%±2.88.

And the “nNOS level in hippocampal lysates” value [2]?
Its value is 133%±8.15.

What about the vascular diameters [3] of the same compound?
Its vascular diameters is “did not affect”.

And the “40 kDa FITC-dextran in the perivascular space (BBB leakage)” value [4]?
Its value is “reduced”.
